According to the NIST ThermoML archive (doi:10.1021/je201140q):
Numbers after ± are expanded uncertainties.

Columns and labels:
[1] = for surface tension liquid-gas: 303.15 K, Maximal bubble pressure; for vapor or sublimation pressure / Normal boiling temperature: Ebulliometric method (Recirculating still)
[2] = refractive index (Na D-line) (dimensionless); conditions: 298.15 K; 101.33 kPa; Liquid; Standard Abbe refractometry
[3] = xn = mol fraction of the nth substance listed; conditions: for mass density: 298.15 K, 101.3 kPa, Liquid, Vibrating tube method; for surface tension liquid-gas: 303.15 K, Maximal bubble pressure

CCO [ethanol]
Conditions | refractive index | surface tension liquid-gas [mN/m]
[1] | – | 21.7 ± 0.26
[2] | 1.36068 ± 0.00031 | –

[1], Liquid
Conditions | vapor or sublimation pressure [kPa]
334.57 K | 50 ± 0.25
344.02 K | 75 ± 0.41
349.56 K | 94 ± 0.56

Conditions | Normal boiling temperature [°C]
[1], Liquid | 78.30 ± 0.2

C1CCOCC1 [tetrahydropyran] + CCO
[3]
Conditions | mass density [kg/m3] | surface tension liquid-gas [mN/m]
x2 = 0 | 879.03 ± 0.09 | 27.1 ± 0.27
x2 = 0.03 | 877.14 ± 0.15 | –
x2 = 0.068 | – | 26.91 ± 0.27
x2 = 0.115 | 871.86 ± 0.15 | –
x2 = 0.122 | – | 26.76 ± 0.27
x2 = 0.193 | 866.85 ± 0.16 | –
x2 = 0.223 | – | 26.5 ± 0.27
x2 = 0.299 | 859.54 ± 0.17 | –
x2 = 0.323 | – | 25.98 ± 0.27
x2 = 0.42 | – | 25.34 ± 0.27
x2 = 0.426 | 849.89 ± 0.18 | –
x2 = 0.496 | 844.01 ± 0.2 | –
x2 = 0.52 | – | 24.9 ± 0.27
x2 = 0.599 | 834.65 ± 0.22 | –
x2 = 0.604 | – | 24.35 ± 0.27
x2 = 0.622 | – | 24.24 ± 0.27
x2 = 0.657 | – | 24.07 ± 0.27
x2 = 0.707 | – | 23.81 ± 0.26
x2 = 0.716 | 822.74 ± 0.24 | –
x2 = 0.722 | – | 23.64 ± 0.26
x2 = 0.799 | 813.13 ± 0.27 | –
x2 = 0.821 | – | 23.01 ± 0.26
x2 = 0.91 | 798.6 ± 0.29 | –
x2 = 0.918 | – | 22.42 ± 0.26
x2 = 0.959 | 791.41 ± 0.32 | –
x2 = 0.963 | – | 22 ± 0.26

CCO [ethanol] + C1CCOCC1
[3], x1 = 1
Conditions | mass density [kg/m3] | surface tension liquid-gas [mN/m]
– | 785.11 ± 0.12 | 21.7 ± 0.26

C1CCOCC1 [tetrahydropyran]
Conditions | mass density [kg/m3]
[1], 298.15 K, 101.3 kPa, Liquid, Vibrating tube method | 879.03 ± 0.09

Conditions | refractive index | surface tension liquid-gas [mN/m]
[1] | – | 27.1 ± 0.27
[2] | 1.42 ± 0.00031 | –

[1], Liquid
Conditions | vapor or sublimation pressure [kPa]
312.59 K | 18.01 ± 0.07
319.62 K | 24.01 ± 0.07
325.36 K | 30.01 ± 0.08
331.7 K | 38.01 ± 0.08
336.4 K | 45.01 ± 0.09
339.33 K | 50 ± 0.3
339.98 K | 51.01 ± 0.09
344.26 K | 59.01 ± 0.1
347.64 K | 66.01 ± 0.11
350.74 K | 73.01 ± 0.11
351.53 K | 75 ± 0.56
353.61 K | 80.01 ± 0.12
356.29 K | 87.01 ± 0.13
358.81 K | 94.01 ± 0.13
358.85 K | 94 ± 0.75
361.55 K | 102.11 ± 0.14

Conditions | Normal boiling temperature [°C]
[1], Liquid | 88.21 ± 0.2
